Measurements as given in the NIST ThermoML archive (doi:10.1016/j.jct.2012.08.004).
Several values for one entry are separate records, joined by “and”; a condition that tells them apart may be missing. Identical values can stand only once.

Conditions: Crystal, Calculated from knudsen effusion weight loss

Cc1c[nH]c(=S)[nH]c1=O [5-methyl-2-thiouracil]
Conditions	vapor or sublimation pressure
413.15 K	0.0001771 kPa and 0.0001698 kPa
415.25 K	0.0002113 kPa and 0.000217 kPa and 0.0002102 kPa
417.15 K	0.0002538 kPa and 0.0002498 kPa
417.24 K	0.0002506 kPa
419.23 K	0.0003129 kPa and 0.0003018 kPa and 0.0003131 kPa
421.24 K	0.0003606 kPa and 0.0003744 kPa
423.16 K	0.0004363 kPa and 0.0004213 kPa and 0.0004419 kPa
425.2 K	0.0005302 kPa and 0.000505 kPa and 0.0005103 kPa
427.22 K	0.0006121 kPa and 0.000601 kPa and 0.0006259 kPa
429.15 K	0.0007317 kPa and 0.0007071 kPa and 0.0007522 kPa
431.22 K	0.0008692 kPa and 0.0008414 kPa and 0.000852 kPa
433.24 K	0.001032 kPa and 0.001018 kPa and 0.001053 kPa

Cc1cc(=O)[nH]c(=S)[nH]1 [6-methyl-2-thiouracil]
Conditions	vapor or sublimation pressure
421.16 K	0.000106 kPa and 9.78e-05 kPa
423.15 K	0.0001239 kPa and 0.0001238 kPa and 0.0001199 kPa
425.17 K	0.000145 kPa and 0.000136 kPa and 0.0001411 kPa
427.16 K	0.0001623 kPa and 0.0001711 kPa and 0.0001818 kPa
429.17 K	0.0002135 kPa and 0.0002 kPa and 0.0002154 kPa
431.16 K	0.0002301 kPa and 0.0002471 kPa
431.19 K	0.0002525 kPa and 0.0002434 kPa and 0.0002473 kPa
433.2 K	0.0002894 kPa and 0.0002713 kPa and 0.0002913 kPa
435.22 K	0.0003418 kPa and 0.0003333 kPa and 0.0003423 kPa
437.17 K	0.0004046 kPa [middle of 5 runs]
439.2 K	0.0005278 kPa and 0.0004968 kPa and 0.0004799 kPa
439.22 K	0.0004689 kPa and 0.000478 kPa and 0.0004523 kPa
441.23 K	0.0005644 kPa [middle of 5 runs]
443.16 K	0.0006925 kPa and 0.0006452 kPa
443.17 K	0.0006889 kPa and 0.0006567 kPa
445.2 K	0.0007983 kPa and 0.0007787 kPa
445.21 K	0.000813 kPa and 0.0008056 kPa and 0.0007574 kPa
447.24 K	0.0009485 kPa [middle of 6 runs]

O=c1cc[nH]c(=S)[nH]1 [2-thiouracil]
Conditions	vapor or sublimation pressure
421.15 K	0.0001325 kPa and 0.000123 kPa and 0.0001236 kPa
423.21 K	0.0001553 kPa and 0.0001548 kPa and 0.0001474 kPa
425.22 K	0.0001891 kPa and 0.000178 kPa and 0.0001835 kPa
427.15 K	0.0002128 kPa and 0.0002092 kPa and 0.0002223 kPa
429.2 K	0.0002611 kPa and 0.0002488 kPa and 0.0002569 kPa
431.23 K	0.0003061 kPa and 0.0002978 kPa and 0.0003042 kPa
433.16 K	0.0003652 kPa and 0.0003584 kPa and 0.0003803 kPa
435.2 K	0.0004422 kPa and 0.0004176 kPa and 0.0004406 kPa
437.24 K	0.0005206 kPa and 0.0005016 kPa and 0.0005328 kPa
439.16 K	0.0005912 kPa and 0.0005684 kPa and 0.0006221 kPa
441.22 K	0.000693 kPa and 0.000706 kPa and 0.0006718 kPa
443.26 K	0.000834 kPa and 0.0008404 kPa and 0.0008041 kPa
